Molecular target: HBHA110–199 (Mycobacterium tuberculosis, UniProt P9WIP9)
Test: ITC binding of HS hexadecasaccharides with HBHA110–199
Conditions: for n (sugar-to-protein binding ratio) / ΔG / ΔH / –TΔS: 25 °C, Tris buffer pH 7.6; for Kd: Tris buffer pH 7.6, 25 °C, two trials, average ± standard deviation, read-out: dissociation constant, KD

Chain of HBHA110–199 (P9WIP9 110-199): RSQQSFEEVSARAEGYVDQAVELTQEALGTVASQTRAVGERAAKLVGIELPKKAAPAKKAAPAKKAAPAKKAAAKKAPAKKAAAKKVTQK

SMILES | n (sugar-to-protein binding ratio) | ΔG | ΔH [kJ/mol] | –TΔS | Kd [µM]
O=C(O)[C@@H]1O[C@@H](O[C@H]2[C@H](O)[C@@H](NS(=O)(=O)O)[C@@H](O[C@H]3[C@H](O)[C@@H](O)[C@H]4OC[C@@H]3O4)O[C@@H]2CO)[C@H](O)[C@@H](O)[C@@H]1O[C@H]1O[C@H](CO)[C@@H](O[C@@H]2O[C@@H](C(=O)O)[C@@H](O[C@H]3O[C@H](CO)[C@@H](O[C@@H]4O[C@@H](C(=O)O)[C@@H](O[C@H]5O[C@H](CO)[C@@H](O[C@@H]6O[C@@H](C(=O)O)[C@@H](O[C@H]7O[C@H](CO)[C@@H](O[C@@H]8O[C@@H](C(=O)O)[C@@H](O[C@H]9O[C@H](CO)[C@@H](O[C@@H]%10O[C@@H](C(=O)O)[C@@H](O[C@H]%11O[C@H](CO)[C@@H](O[C@@H]%12O[C@@H](C(=O)O)[C@@H](O[C@H]%13O[C@H](CO)[C@@H](O)[C@H](O)[C@H]%13NS(=O)(=O)O)[C@H](O)[C@H]%12O)[C@H](O)[C@H]%11NS(=O)(=O)O)[C@H](O)[C@H]%10O)[C@H](O)[C@H]9NS(=O)(=O)O)[C@H](O)[C@H]8O)[C@H](O)[C@H]7NS(=O)(=O)O)[C@H](O)[C@H]6O)[C@H](O)[C@H]5NS(=O)(=O)O)[C@H](O)[C@H]4O)[C@H](O)[C@H]3NS(=O)(=O)O)[C@H](O)[C@H]2O)[C@H](O)[C@H]1NS(=O)(=O)O [compound 21] | 0.23 ± 0.10 | –6.55 ± 0.06 kcal/mol | 32.5 ± 16.8 | –14.30 ± 3.96 kcal/mol | 16 ± 1.5
CC(=O)N[C@H]1[C@@H](O[C@H]2[C@H](O)[C@@H](OS(=O)(=O)O)[C@H]3OC[C@@H]2O3)O[C@H](COS(=O)(=O)O)[C@@H](O[C@@H]2O[C@@H](C(=O)O)[C@@H](O[C@H]3O[C@H](COS(=O)(=O)O)[C@@H](O[C@@H]4O[C@@H](C(=O)O)[C@@H](O[C@H]5O[C@H](COS(=O)(=O)O)[C@@H](O[C@@H]6O[C@@H](C(=O)O)[C@@H](O[C@H]7O[C@H](COS(=O)(=O)O)[C@@H](O[C@@H]8O[C@@H](C(=O)O)[C@@H](O[C@H]9O[C@H](COS(=O)(=O)O)[C@@H](O[C@@H]%10O[C@@H](C(=O)O)[C@@H](O[C@H]%11O[C@H](COS(=O)(=O)O)[C@@H](O[C@@H]%12O[C@@H](C(=O)O)[C@@H](O[C@H]%13O[C@H](COS(=O)(=O)O)[C@@H](O[C@@H]%14O[C@@H](C(=O)O)[C@@H](O[C@H]%15O[C@H](COS(=O)(=O)O)[C@@H](O)[C@H](O)[C@H]%15NC(C)=O)[C@H](O)[C@H]%14OS(=O)(=O)O)[C@H](O)[C@H]%13NC(C)=O)[C@H](O)[C@H]%12OS(=O)(=O)O)[C@H](O)[C@H]%11NC(C)=O)[C@H](O)[C@H]%10OS(=O)(=O)O)[C@H](O)[C@H]9NC(C)=O)[C@H](O)[C@H]8OS(=O)(=O)O)[C@H](O)[C@H]7NC(C)=O)[C@H](O)[C@H]6OS(=O)(=O)O)[C@H](O)[C@H]5NC(C)=O)[C@H](O)[C@H]4OS(=O)(=O)O)[C@H](O)[C@H]3NC(C)=O)[C@H](O)[C@H]2OS(=O)(=O)O)[C@@H]1O [compound 23] | 0.27 ± 0.01 | –7.62 ± 0.02 kcal/mol | 62.76 ± 0 | –22.60 ± 0.00 kcal/mol | 2.63 ± 0.11
